{"source": "patent US20110275103A1", "about": "“EMISSION RATIOMETRIC REPORTERS OF MEMBRANE PDK1 ACTIVATION” (THE JOHNS HOPKINS UNIVERSITY, priority 2010, published 2011)", "type_in_all_cases": "cell-based", "key": {"PDK1 [1]": {"system": "PDK1", "assay": "FRET emission ratio imaging of PDK1 activation reporters (PARE, Lyn-PARE, PARE-Kras) in NIH 3T3 cells", "conditions": "for emission ratio change of the non-raft-targeted reporter (PARE-Kras) / emission ratio change of the untargeted reporter (PARE) / response of the Lyn-PARE R472/474A mutant reporter / increase in the yellow-to-cyan emission ratio of the raft-targeted PDK1 activity reporter (Lyn-PARE): serum-starved NIH 3T3 cells", "description": "(§1) PARE was generated by sandwiching full-length PDK1 between a FRET pair, ECFP and Citrine. Lyn-PARE and PARE-Kras were generated by the addition of the N-terminal portion of the Lyn kinase gene (GCIKSKRKDKD; SEQ ID NO:6) at the 5′ end and a C(A)2X tag (C is cysteine, A is an aliphatic amino acid, and X is any amino acid) at the 3′ end (KKKKKSKTKCVIM; SEQ ID NO:7) of PARE, respectively. Lyn-PARE R472/474A was generated by site-directed mutagenesis. PTEN A4 (fused with a C-terminal fluorescent protein) was targeted to raft and non-raft regions of plasma membrane with the same set of targeting motifs. All of the constructs were generated in a modified version of the mammalian expression vector pcDNA 3.\n(§2) Cells were plated on sterilized glass coverslips in 35 mm dishes and were grown to 40% confluency in medium at 37° C. with 5% CO2, then transfected with Lipofectamine 2000. In the case of NIH 3T3 and HeLa cells, the cells were serum-starved for 24 h. For imaging, cells were washed with Hanks' balanced salt solution (HBSS) and imaged in the dark at room temperature. Images were acquired on a Zeiss Axiovert 200M microscope with a cooled charge-coupled device camera, as previously described (8). Dual-emission ratio imaging was performed with a 420DF20 excitation filter, a 450DRLP dichroic mirror, and two emission filters. For CFP and YFP, 475DF40 and 535DF25, respectively, were used. Exposure times were 50-500 ms. Images were taken every 30 s. Imaging data were analyzed with Metafluor 6.2 software (Universal Imaging, Downingtown, Pa.). Fluorescence images were background-corrected by deducting the background (regions with no cells) from the emission intensities of CFP or YFP. Traces were normalized by taking the emission ratio before addition of drugs as 1."}, "PDK1 [2]": {"system": "PDK1", "assay": "FRET emission ratio imaging of Lyn-PARE in 3T3 L1 preadipocytes", "conditions": "pre-incubation with 50 μM C2-ceramide", "description": "as §1\nCells were plated on sterilized glass coverslips in 35 mm dishes and were grown to 40% confluency in medium at 37° C. with 5% CO2, then transfected with Lipofectamine 2000. In the case of NIH 3T3 and HeLa cells, the cells were serum-starved for 24 h. For imaging, cells were washed with Hanks' balanced salt solution (HBSS) and imaged in the dark at room temperature. […] Imaging data were analyzed with Metafluor 6.2 software (Universal Imaging, Downingtown, Pa.). Fluorescence images were background-corrected by deducting the background (regions with no cells) from the emission intensities of CFP or YFP. […]"}, "Akt [3]": {"system": "Akt", "assay": "Membrane translocation of YFP-tagged Akt PH domain in NIH 3T3 cells", "description": "as §2"}, "Akt [4]": {"system": "Akt", "assay": "Membrane translocation of Akt PH domain in 3T3 L1 preadipocytes", "conditions": "pre-incubation with 50 μM C2-ceramide", "description": "as §2"}, "Akt [5]": {"system": "Akt", "assay": "FRET-based Akt activity reporter (AktAR) imaging in NIH 3T3 cells", "conditions": "pre-incubation with 50 μM C2-ceramide for 60 min", "description": "as §2"}, "Akt [6]": {"system": "Akt", "assay": "FRET-based Akt activity reporter (AktAR) imaging in 3T3 L1 preadipocytes", "conditions": "pre-incubation with 50 μM C2-ceramide", "description": "as §2"}, "PTEN": {"system": "PTEN", "assay": "Sucrose density gradient fractionation of crude plasma membranes and anti-PTEN Western blot, 3T3-L1 adipocytes", "description": "Cells were washed with ice-cold PBS and then lysed in RIPA lysis buffer containing protease inhibitor cocktail (Roche), 1 mM PMSF, 1 mM NaVO4, 1 mM NaF and 25 nM calyculin A. Total cell lysates were incubated on ice for 30 min, then centrifuged at 4° C. for 20 min. Total protein was separated with 7.5% SDS-PAGE and transferred to nitrocellulose membranes. The membranes were blocked with TBS containing 0.05% Tween-20 and 1% bovine serum albumin, then incubated with primary antibodies overnight at 4° C. After incubation with the appropriate horseradish peroxidase-conjugated secondary antibodies, the bands were visualized by enhanced chemiluminescence. The intensity of the bands was quantified with ImageJ software.\nCells were rinsed twice with ice-cold PBS and harvested into 10 mM Tris (pH 7.4) with 150 mM NaCl, 5 mM EDTA, 2 mM PMSF, 2 mM NaVO4, 2 mM NaF, and 50 nM calyculin A, with protease inhibitor cocktail. The cells then were subjected to mechanical disruption with 15 strokes of a homogenizer. Homogenates were centrifuged at 2,300×g for 5 min at 4° C., and the supernatant was centrifuged at 18,000×g for 50 min at 4° C. (32). The resulting membrane pellets were resuspended in 10 mM Tris (pH 7.4) with 150 mM NaCl, 5 mM EDTA, 2 mM PMSF, 2 mM NaVO4, 2 mM NaF and 50 nM calyculinA A, with protease inhibitor cocktail and 1% Triton X-100, for sucrose density gradient fractionation. […]"}, "3T3 L1 adipocytes": {"system": "3T3 L1 adipocytes", "assay": "Glucose uptake assay ([14C]2-deoxyglucose) in 3T3 L1 adipocytes", "conditions": "pre-incubation with 50 μM C2-ceramide for 60 min, 100 nM insulin, n=3", "description": "3T3-L1 preadipocytes were grown to confluency in 10% calf serum/DMEM and stimulated with induction media (DMEM containing 10% fetal bovine serum, 1 μg/ml insulin, 1 μM dexamethasone, and 0.5 mM 3-isobutyl-1-methylxanthine) at 2 days post-confluency.\nThe medium was changed to insulin medium (1 μg/ml) 2 days after induction. Two days later, the medium was replaced with 10% fetal bovine serum/DMEM and then changed every 2 days. Full differentiation was achieved by 8 days after induction.\nAdipocytes were incubated in Krebs-Ringer bicarbonate buffer supplemented with 30 mM HEPES, pH 7.4, with 0.5% BSA (KRBH/BSA) and 2.5 mM glucose for 3 h. The cells were washed once with PBS and incubated in BSA/KRH (25 mM HEPES-NaOH, pH 7.4, with 120 mM NaCl, 5 mM KCl, 1.2 mM MgSO4, 1.3 mM CaCl2, and 1.3 mM KH2PO4) without glucose for 15 min. The cells were then incubated with 100 nM insulin for 15 min. The assay was initiated by the addition of ^[14C]2-deoxyglucose (0.4 μCi/sample) and 5 mM glucose and terminated after 15 min by washing the cells three times with ice-cold PBS. Cells were solubilized in 1% Triton-100, and cell-associated radioactivity was determined by scintillation counting."}, "PDK1 [7]": {"system": "PDK1", "assay": "FRET emission ratio imaging of PDK1 activation reporters in HeLa cells", "conditions": "serum-starved HeLa cells; 100 ng/ml EGF", "description": "as §1, §2"}, "[8]": {"conditions": "NIH 3T3 cells, pre-incubation with 50 μM C2-ceramide for 60 min"}}, "note": "Entries after “also recorded” stand apart in the source; their conditions may differ.", "data": [{"compound": "CCCCCCCCCCCCC/C=C/[C@@H](O)[C@H](CO)NC(C)=O", "note": "[C2-ceramide]", "values": [{"measurement": "effect on response of Lyn-PARE", "setting": "PDK1 [1]; [8]", "value": "abolished"}, {"measurement": "effect on response of Lyn-PARE", "setting": "PDK1 [2]", "value": "abolished"}, {"measurement": "effect on membrane translocation of Akt PH domain", "setting": "Akt [3]; [8]", "value": "abolished"}, {"measurement": "effect on membrane translocation of Akt PH domain", "setting": "Akt [4]", "value": "abolished"}, {"measurement": "effect on response of AktAR", "setting": "Akt [5]", "value": "abolished"}, {"measurement": "effect on response of AktAR", "setting": "Akt [6]", "value": "abolished"}, {"measurement": "increase in the amount of PTEN found in raft fractions", "setting": "PTEN; pre-incubation with 50 μM C2-ceramide, n=3", "value": "8.8±2.1", "unit": "fold"}, {"measurement": "level of PTEN in non-raft regions of adipocyte membranes", "setting": "PTEN; pre-incubation with C2-ceramide", "value": "without changing the level of PTEN"}, {"measurement": "effect on insulin-induced glucose uptake", "setting": "3T3 L1 adipocytes", "value": "blocked insulin-induced glucose uptake; also recorded: inhibited insulin-induced glucose uptake"}]}, {"compound": "OO", "note": "[H2O2]", "values": [{"measurement": "effect on Lyn-PARE response to PDGF suppressed by targeted PTEN A4", "setting": "PDK1 [1]; NIH 3T3 cells, 50 mM H2O2", "value": "restored"}, {"measurement": "effect on Akt PH membrane translocation suppressed by Lyn-PTEN A4", "setting": "Akt [3]; 50 mM H2O2", "value": "restored the membrane translocation"}, {"measurement": "effect on inhibition of Akt-PH translocation by non-raft-targeted PTEN A4 (PTEN A4-Kras)", "setting": "Akt [3]; H2O2 treatment", "value": "reversed"}]}, {"compound": "EGF: epidermal growth factor, purchased from Sigma-Aldrich (NSDSECPLSHDGYCLHDGVCMYIEALDKYACNCVVGYIGERCQYRDLKWWELR; UniProt P01133 971-1023, looked up)", "values": [{"measurement": "emission ratio change of the non-raft-targeted reporter (PARE-Kras)", "setting": "PDK1 [7]", "value": "but not PARE (n=4) or PARE-Kras"}, {"measurement": "emission ratio change of the raft-targeted reporter (Lyn-PARE)", "setting": "PDK1 [7]", "value": "induced an emission ratio increase"}, {"measurement": "emission ratio change of the untargeted reporter (PARE)", "setting": "PDK1 [7]", "value": "but not PARE"}]}, {"compound": "PDGF", "values": [{"measurement": "emission ratio change of the non-raft-targeted reporter (PARE-Kras)", "setting": "PDK1 [1]; 50 ng/ml PDGF", "value": "no emission ratio change"}, {"measurement": "emission ratio change of the untargeted reporter (PARE)", "setting": "PDK1 [1]; 50 ng/ml PDGF", "value": "no emission ratio change"}, {"measurement": "response of the Lyn-PARE R472/474A mutant reporter", "setting": "PDK1 [1]; 50 ng/ml PDGF", "value": "lack of response"}, {"measurement": "increase in the yellow-to-cyan emission ratio of the raft-targeted PDK1 activity reporter (Lyn-PARE)", "setting": "PDK1 [1]; 50 ng/ml PDGF, n=7", "value": "19±4", "unit": "%"}]}, {"compound": "pervanadate [PV]", "values": [{"measurement": "emission ratio change of the non-raft-targeted reporter (PARE-Kras)", "setting": "PDK1 [1]; 100 μM PV", "value": "Only the raft-targeted PDK1 activity reporter showed an increase"}, {"measurement": "emission ratio change of the untargeted reporter (PARE)", "setting": "PDK1 [1]; 100 μM PV", "value": "no emission ratio change"}, {"measurement": "increase in the yellow-to-cyan emission ratio of the raft-targeted PDK1 activity reporter (Lyn-PARE)", "setting": "PDK1 [1]; 100 μM PV, n=5", "value": "20.7±3.3", "unit": "%"}, {"measurement": "response of the Lyn-PARE R472/474A mutant reporter", "setting": "PDK1 [1]; PV", "value": "lack of response"}]}]}
